Data on 24 compounds can be found in patent publication US12486284B2, “Ubiquitin-specific protease inhibitor and preparation method therefor and use thereof” (CHASER THERAPEUTICS, INC., priority 2019, dated 2025).

One experiment has as its target T1, USP28 (Homo sapiens, UniProt Q96RU2).
T1 construct: purchased R&D Systems
T1 sequence (Q96RU2 1-1077): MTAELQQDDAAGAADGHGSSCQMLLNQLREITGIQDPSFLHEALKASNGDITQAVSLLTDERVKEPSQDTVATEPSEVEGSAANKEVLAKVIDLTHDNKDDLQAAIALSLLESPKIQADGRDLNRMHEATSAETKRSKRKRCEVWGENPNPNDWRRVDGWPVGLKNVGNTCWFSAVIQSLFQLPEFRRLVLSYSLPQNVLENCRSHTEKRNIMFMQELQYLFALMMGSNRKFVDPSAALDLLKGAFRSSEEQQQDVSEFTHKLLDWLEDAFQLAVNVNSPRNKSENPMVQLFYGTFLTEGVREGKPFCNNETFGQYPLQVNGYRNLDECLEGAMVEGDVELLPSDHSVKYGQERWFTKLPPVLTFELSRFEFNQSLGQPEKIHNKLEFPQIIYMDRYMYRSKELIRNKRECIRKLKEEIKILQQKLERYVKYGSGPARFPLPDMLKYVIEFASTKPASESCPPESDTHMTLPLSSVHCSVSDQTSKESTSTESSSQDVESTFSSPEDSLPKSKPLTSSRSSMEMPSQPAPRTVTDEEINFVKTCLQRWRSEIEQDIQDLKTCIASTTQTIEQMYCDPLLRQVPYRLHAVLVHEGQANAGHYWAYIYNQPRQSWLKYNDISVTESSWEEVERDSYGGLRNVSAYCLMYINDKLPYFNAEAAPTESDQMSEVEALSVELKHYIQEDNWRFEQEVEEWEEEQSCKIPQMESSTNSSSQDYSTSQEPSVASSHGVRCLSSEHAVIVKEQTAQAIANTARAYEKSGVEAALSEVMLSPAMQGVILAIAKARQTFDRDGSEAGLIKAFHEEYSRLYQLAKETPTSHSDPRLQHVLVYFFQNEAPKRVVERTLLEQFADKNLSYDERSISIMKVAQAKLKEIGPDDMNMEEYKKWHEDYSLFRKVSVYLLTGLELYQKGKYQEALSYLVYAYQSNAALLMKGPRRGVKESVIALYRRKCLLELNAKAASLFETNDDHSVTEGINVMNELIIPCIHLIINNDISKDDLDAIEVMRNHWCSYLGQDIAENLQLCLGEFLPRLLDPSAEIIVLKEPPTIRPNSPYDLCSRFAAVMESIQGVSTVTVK
The experiment is described as follows: USP28 activity measured using ubiquitin-rhodamine 110 method. The conditions noted are these: purified USP28 4 nM, ubiquitin-rhodamine 110 125 nM, 30 min preincubation. In kind it is biochemical. The procedure:
USP28 activity was measured using ubiquitin-rhodamine 110 method.
(§1) Purified USP28 and the ubiquitin-rhodamine 110 substrate used for measuring DUBs activity were both from R&D Systems. Test compounds were first dissolved in DMSO to prepare a 10 mM stock solution, and then the stock solution was diluted with a buffer solution [containing 20 mM Tris-HCl (pH 8.0), 2 mM CaCl2), 3 mM BME, 0.01% Prionix, 0.01% Triton X-100] to the desired concentration (with DMSO content less than or equal to 0.5%). The dilution was mixed well with USP28 (final concentration 4 nM) in a 96-well plate and incubated at room temperature for 30 min, and then added with the substrate (ubiquitin-rhodamine 110) to 125 nM. The final volume of the whole reaction system was 20 μL. The released fluorescence (excitation wavelength 485 nm, emission wavelength 535 nm) was detected immediately on a microplate reader after the addition of the substrate. The inhibitory rate of the test compound against USP28 was calculated according to the following formula: Inhibition %=1−[(test compound+fluorescence value of substrate−fluorescence value of test compound (no substrate))/mean fluorescence value of DMSO control group−fluorescence value of test compound (no substrate)]
According to the inhibitory rates of the test compound against USP28 under different concentrations, IC50 was calculated.

The next experiment addresses T2, USP25 (Homo sapiens, UniProt Q9UHP3).
T2 construct: purchased R&D Systems
T2 sequence (Q9UHP3 1-1055): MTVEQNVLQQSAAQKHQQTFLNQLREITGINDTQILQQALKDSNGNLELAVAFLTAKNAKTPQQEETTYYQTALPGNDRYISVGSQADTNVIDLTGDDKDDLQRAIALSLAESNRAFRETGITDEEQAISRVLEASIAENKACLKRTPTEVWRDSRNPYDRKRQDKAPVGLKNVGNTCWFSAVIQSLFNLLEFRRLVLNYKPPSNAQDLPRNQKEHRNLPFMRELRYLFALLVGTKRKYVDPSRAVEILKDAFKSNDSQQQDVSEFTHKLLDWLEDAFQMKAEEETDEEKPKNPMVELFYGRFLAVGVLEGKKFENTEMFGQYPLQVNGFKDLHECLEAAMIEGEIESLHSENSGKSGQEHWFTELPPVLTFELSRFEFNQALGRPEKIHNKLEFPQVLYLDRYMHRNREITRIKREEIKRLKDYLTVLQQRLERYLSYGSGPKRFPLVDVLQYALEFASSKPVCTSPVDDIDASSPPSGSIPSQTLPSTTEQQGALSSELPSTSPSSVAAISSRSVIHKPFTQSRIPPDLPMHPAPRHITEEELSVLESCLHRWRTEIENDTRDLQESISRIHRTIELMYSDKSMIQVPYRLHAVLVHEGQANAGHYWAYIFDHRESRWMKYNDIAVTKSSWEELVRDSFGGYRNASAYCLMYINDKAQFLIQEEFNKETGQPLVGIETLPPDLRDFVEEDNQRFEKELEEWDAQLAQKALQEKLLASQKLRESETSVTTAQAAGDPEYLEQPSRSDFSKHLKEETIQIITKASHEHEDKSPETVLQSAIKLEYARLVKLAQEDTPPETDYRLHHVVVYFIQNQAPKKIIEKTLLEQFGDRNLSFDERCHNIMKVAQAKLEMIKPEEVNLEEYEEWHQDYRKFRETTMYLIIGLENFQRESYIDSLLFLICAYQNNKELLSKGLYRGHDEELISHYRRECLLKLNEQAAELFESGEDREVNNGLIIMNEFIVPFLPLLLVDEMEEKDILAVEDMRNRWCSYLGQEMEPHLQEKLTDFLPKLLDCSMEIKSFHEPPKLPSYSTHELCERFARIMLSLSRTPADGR
The experiment is described as follows: USP25 activity measured using ubiquitin-rhodamine 110 method. In kind it is biochemical. As to conditions: purified USP25 15 nM, ubiquitin-rhodamine 110 125 nM, 30 min preincubation. The procedure:
USP25 activity was measured using ubiquitin-rhodamine 110 method.
as §1, with “Purified USP25” for “Purified USP28”, “with USP25” for “with USP28”, “concentration 15” for “concentration 4”, “the substrate, and the” for “the substrate. The”, “against USP25” for “against USP28”
As in Example 11, according to the inhibitory rates of the test compound against USP25 under different concentrations, IC50 was calculated.

Setting [1] is: read-out: Inhibitory activity against USP28 (IC50).
[2] abbreviates: read-out: Inhibitory activity against USP25 (IC50).
Setting [3] is: Inhibitory activity against USP28 (IC50).
Setting [4] is: Inhibitory activity against USP25 (IC50).

Like-named read-outs stand apart in the source and are kept apart here.

A word on the IC50: it is the point on the concentration scale where inhibition reaches its midpoint. In the case of `CNc1c(C(=O)NCCc2ccc(N3C[C@H]4CC[C@@H](C3)N4)cc2)sc2nc(CO)ccc12` [Compound I-22], the IC50 on USP28 (setting [1]) and at USP25 (setting [2]) was 100 to 1000 nM in each case.

Turning to `CCNc1c(C(=O)NCCc2ccc(N3C[C@H]4CC[C@@H](C3)N4)cc2)sc2nc(C)ccc12` [Compound I-23], the IC50 at USP28 (setting [1]) lay in the range of 100 to 1000 nM; at USP25 (setting [2]), 5000 to 10000 nM.

Take `CCCNc1c(C(=O)NCCc2ccc(N3C[C@H]4CC[C@@H](C3)N4)cc2)sc2nc(C)ccc12` [Compound I-24]: the values for the IC50 on USP28 (setting [1]) and at USP25 (setting [2]) were 100 to 1000 nM and more than 10000 nM, respectively.

As for `Cc1ccc2c(NCCN(C)C)c(C(=O)NCCc3ccc(N4C[C@H]5CC[C@@H](C4)N5)cc3)sc2n1` [Compound I-25], the IC50 was 5000 to 10000 nM at USP28 (setting [1]) and more than 10000 nM on USP25 (setting [2]).

On to `CNc1c(C(=O)NCCc2ccc(N3C[C@H]4CC[C@@H](C3)N4)cc2)sc2nc(C)cc(C)c12` [Compound I-26], for which the IC50 at USP28 (setting [1]) was in the range of 100 to 1000 nM; on USP25 (setting [2]), 5000 to 10000 nM.

As to `CNc1c(C(=O)NCCc2ccc(N3C[C@H]4CC[C@@H](C3)N4)cc2)sc2nc(C)cc(C(F)(F)F)c12` [Compound I-27], the IC50 against USP28 (setting [3]) and on USP25 (setting [4]) was less than 100 nM throughout.

For the compound `CNc1c(C(=O)NCCc2ccc(N3C[C@H]4CC[C@@H](C3)N4)cc2)sc2nc(C(F)F)cc(C)c12` [Compound I-28], the IC50 against USP28 (setting [3]) and at USP25 (setting [4]) was less than 100 nM throughout.

For `CNc1c(C(=O)NCCc2ccc(N3C[C@H]4CC[C@@H](C3)N4)cc2)sc2nc(C)c(F)cc12` [Compound I-29], the IC50 against USP28 (setting [3]) was less than 100 nM; at USP25 (setting [2]), 100 to 1000 nM.

On to `CNc1c(C(=O)NCCc2ccc(N3C[C@H]4CC[C@@H](C3)N4)cc2)sc2nc(C)c(C)cc12` [Compound I-30], for which the figures for the IC50 on USP28 (setting [1]) and at USP25 (setting [2]) were 100 to 1000 nM and 1000 to 5000 nM, respectively.

As for `CCc1nc2sc(C(=O)NCCc3ccc(N4C[C@H]5CC[C@@H](C4)N5)cc3)c(NC)c2cc1C` [Compound I-31], the IC50 against USP28 (setting [3]) is less than 100 nM; on USP25 (setting [2]), 100 to 1000 nM.

With `CCc1nc2sc(C(=O)NCCc3ccc(N4C[C@H]5CC[C@@H](C4)N5)cc3)c(NC)c2c(C(F)(F)F)c1C` [Compound I-32], the IC50 at USP28 (setting [3]) is less than 100 nM; at USP25 (setting [2]), 5000 to 10000 nM.

Turning to `CNc1c(C(=O)NCCc2ccc(N3C[C@H]4CC[C@@H](C3)N4)c(C)c2)sc2nc(C)ccc12` [Compound I-33], the IC50 is less than 100 nM on USP28 (setting [3]) and 5000 to 10000 nM on USP25 (setting [2]).

As for `CCc1cc(CCNC(=O)c2sc3nc(C)ccc3c2NC)ccc1N1[C@@H]2CC[C@H]1CNC2` [Compound I-34], the IC50 against USP28 (setting [3]) is less than 100 nM; on USP25 (setting [2]), 100 to 1000 nM.

Turning to `CNc1c(C(=O)NCCc2ccc(N3C[C@H]4CC[C@@H](C3)N4)c(C3CC3)c2)sc2nc(C)ccc12` [Compound I-35], the IC50 was less than 100 nM on USP28 (setting [3]) and 100 to 1000 nM at USP25 (setting [2]).

Consider `CNc1c(C(=O)NCCc2ccc(N3C[C@H]4CC[C@@H](C3)N4)c(OC)c2)sc2nc(C)ccc12` [Compound I-36], for which the 50% inhibitory concentration (IC50) at USP28 (setting [3]) and against USP25 (setting [4]) was less than 100 nM throughout.

As for `CNc1c(C(=O)NCCc2ccc(N3C[C@H]4CC[C@@H](C3)N4)c(C#N)c2)sc2nc(C)ccc12` [Compound I-37], the IC50 against USP28 (setting [3]) and at USP25 (setting [4]) was less than 100 nM in each case.

As to `CNc1c(C(=O)NCCc2ccc(N3C[C@H]4CC[C@@H](C3)N4)c(Cl)c2)sc2nc(C)ccc12` [Compound I-38], the IC50 is less than 100 nM on USP28 (setting [3]) and more than 10000 nM at USP25 (setting [2]).

`CNc1c(C(=O)NCCc2ccc(N3C[C@H]4CC[C@@H](C3)N4)cc2F)sc2nc(C)ccc12` [Compound I-39]: the IC50 on USP28 (setting [1]) and on USP25 (setting [2]) was 100 to 1000 nM throughout.

As for `CNc1c(C(=O)NCCc2ccc(N3C[C@H]4CC[C@@H](C3)N4)c(F)c2)sc2nc(C)ccc12` [Compound I-40], the IC50 against USP28 (setting [3]) is less than 100 nM; at USP25 (setting [2]) it was 100 to 1000 nM.

As to `CNc1c(C(=O)NCCc2ccc(N3C[C@H]4CC[C@@H](C3)N4)c(C(F)(F)F)c2)sc2nc(C)ccc12` [Compound I-41], the IC50 is 100 to 1000 nM on USP28 (setting [1]) and more than 10000 nM at USP25 (setting [2]).

As for `CNc1c(C(=O)NCCc2cc(F)c(N3C[C@H]4CC[C@@H](C3)N4)cc2F)sc2nc(C)ccc12` [Compound I-42], the IC50 against USP28 (setting [3]) was less than 100 nM; on USP25 (setting [2]) it was more than 10000 nM.

For the compound `CNc1c(C(=O)NCCc2cc(F)c(N3C[C@H]4CC[C@@H](C3)N4)c(F)c2)sc2nc(C)ccc12` [Compound I-43], the IC50 at USP28 (setting [3]) is less than 100 nM; at USP25 (setting [2]), more than 10000 nM.

Take `CNc1c(C(=O)NCCc2cc(F)c(N3C[C@H]4CC[C@@H](C3)N4)c(Cl)c2)sc2nc(C)ccc12` [Compound I-44]: the IC50 on USP28 (setting [3]) is less than 100 nM; at USP25 (setting [2]), more than 10000 nM.

Consider `CNc1c(C(=O)NCCc2c(F)cc(N3C[C@H]4CC[C@@H](C3)N4)cc2F)sc2nc(C)ccc12` [Compound I-45], for which the results for the IC50 on USP28 (setting [3]) and at USP25 (setting [2]) were less than 100 nM and more than 10000 nM, respectively.
